In ChEMBL document CHEMBL4373688 (Medchemcomm, 2019) one finds Ratio IC50 and IC50 data, which are given here for 4 compounds.

Molecules are shown by their SMILES.

The term IC50 denotes the concentration that gives 50% inhibition.

For one assay, the species on record is Homo sapiens. Kind of assay: Selectivity ratio of IC50 for wild type His-tagged human FGFR3 (455 to 763 residues) expressed in Sf9 insect cells to IC50 for human VEGFR2 (805 to 1171 residues).
Assay [1] has as its target Vascular endothelial growth factor receptor 2 (Homo sapiens, UniProt P35968).
Description: Inhibition of human VEGFR2 (805 to 1171 residues) by ELISA
The target in assay [2] is Fibroblast growth factor receptor 3 (Homo sapiens, UniProt P22607). Kind of assay: biochemical. It counts as cell-based, Sf9.
Fibroblast growth factor receptor 3, sequence (P22607 whole entry): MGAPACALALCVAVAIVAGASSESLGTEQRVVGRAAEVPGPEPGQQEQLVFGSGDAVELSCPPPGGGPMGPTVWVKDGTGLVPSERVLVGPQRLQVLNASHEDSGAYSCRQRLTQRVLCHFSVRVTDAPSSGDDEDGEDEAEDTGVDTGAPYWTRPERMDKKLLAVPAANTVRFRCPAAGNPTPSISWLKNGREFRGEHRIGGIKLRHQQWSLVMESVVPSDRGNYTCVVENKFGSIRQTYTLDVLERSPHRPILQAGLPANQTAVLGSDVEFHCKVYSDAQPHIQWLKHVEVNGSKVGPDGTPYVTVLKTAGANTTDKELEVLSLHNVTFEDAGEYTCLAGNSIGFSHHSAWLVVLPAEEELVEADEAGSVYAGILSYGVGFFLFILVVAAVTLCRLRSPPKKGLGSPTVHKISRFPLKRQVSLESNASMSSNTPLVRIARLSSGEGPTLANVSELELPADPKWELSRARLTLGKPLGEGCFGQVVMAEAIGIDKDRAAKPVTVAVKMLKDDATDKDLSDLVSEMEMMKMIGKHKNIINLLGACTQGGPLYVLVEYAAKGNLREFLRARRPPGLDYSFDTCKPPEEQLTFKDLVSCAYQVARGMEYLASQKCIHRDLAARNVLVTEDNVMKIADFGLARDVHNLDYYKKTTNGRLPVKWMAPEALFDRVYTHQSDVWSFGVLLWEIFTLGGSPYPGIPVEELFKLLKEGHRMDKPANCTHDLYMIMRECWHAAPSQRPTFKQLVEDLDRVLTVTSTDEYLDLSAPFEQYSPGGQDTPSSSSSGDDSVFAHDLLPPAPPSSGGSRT
Description: Inhibition of wild type His-tagged human FGFR3 (455 to 763 residues) expressed in Sf9 insect cells by ELISA

Vascular endothelial growth factor receptor 2, sequence (P35968 whole entry): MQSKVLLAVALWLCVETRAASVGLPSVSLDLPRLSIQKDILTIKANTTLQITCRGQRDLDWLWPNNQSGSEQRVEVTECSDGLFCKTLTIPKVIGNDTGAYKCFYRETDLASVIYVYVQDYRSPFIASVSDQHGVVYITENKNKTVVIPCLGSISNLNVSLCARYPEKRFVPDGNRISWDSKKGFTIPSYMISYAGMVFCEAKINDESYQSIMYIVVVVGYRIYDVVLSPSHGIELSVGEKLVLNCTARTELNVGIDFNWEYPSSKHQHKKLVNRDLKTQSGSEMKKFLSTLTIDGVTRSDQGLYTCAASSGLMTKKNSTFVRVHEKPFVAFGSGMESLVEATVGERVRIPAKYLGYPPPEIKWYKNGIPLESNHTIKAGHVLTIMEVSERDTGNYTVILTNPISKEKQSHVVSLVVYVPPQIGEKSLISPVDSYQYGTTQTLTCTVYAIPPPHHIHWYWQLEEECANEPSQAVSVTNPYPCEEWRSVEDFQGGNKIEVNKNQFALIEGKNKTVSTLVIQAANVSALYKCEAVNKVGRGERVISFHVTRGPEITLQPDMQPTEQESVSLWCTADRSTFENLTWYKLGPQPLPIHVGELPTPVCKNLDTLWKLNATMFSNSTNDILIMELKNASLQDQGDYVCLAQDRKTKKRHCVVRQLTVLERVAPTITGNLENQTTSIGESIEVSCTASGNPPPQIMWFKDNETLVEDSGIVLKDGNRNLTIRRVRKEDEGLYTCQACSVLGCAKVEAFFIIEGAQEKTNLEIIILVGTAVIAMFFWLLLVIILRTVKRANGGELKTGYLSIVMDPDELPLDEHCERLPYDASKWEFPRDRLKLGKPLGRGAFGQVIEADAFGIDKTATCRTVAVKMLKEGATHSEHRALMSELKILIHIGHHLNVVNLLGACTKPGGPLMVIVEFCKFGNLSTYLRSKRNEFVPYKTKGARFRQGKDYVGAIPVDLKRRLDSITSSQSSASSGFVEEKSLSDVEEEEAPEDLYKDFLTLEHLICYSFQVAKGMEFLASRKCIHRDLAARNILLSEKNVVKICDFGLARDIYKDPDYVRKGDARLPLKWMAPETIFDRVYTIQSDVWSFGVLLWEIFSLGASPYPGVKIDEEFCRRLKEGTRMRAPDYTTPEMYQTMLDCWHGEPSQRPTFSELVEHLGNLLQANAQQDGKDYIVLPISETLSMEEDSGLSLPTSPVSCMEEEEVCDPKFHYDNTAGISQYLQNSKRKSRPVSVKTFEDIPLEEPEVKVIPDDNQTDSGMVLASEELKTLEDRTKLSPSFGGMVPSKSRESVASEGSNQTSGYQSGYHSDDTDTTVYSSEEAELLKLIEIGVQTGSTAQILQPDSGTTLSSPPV

Regarding `COc1ccc(CNc2ccc3ncc(-c4cnn(C)c4)nc3c2)c(OC)c1`, in the assay listed under Homo sapiens, the Ratio IC50 was found to be 15. In addition, the IC50 in assay [1] amounted to 5.5 µM; in assay [2] it was 0.33 µM.

For the compound `Cn1cc(-c2cnc3ccc(Cl)cc3n2)cn1`, the IC50 was 0.46 µM in assay [1] and 6.5 µM in assay [2].

Take `Nc1ccc2nccnc2c1`: the values for the concentration for half-maximal inhibition (IC50) in assay [1] and in assay [2] were 140 µM and 120 µM, respectively.

As for `COc1cc(Nc2ccc3ncc(-c4cnn(C)c4)nc3c2)cc(OC)c1`, the IC50 was 0.56 µM in assay [1] and 0.012 µM in assay [2].
